Test results taken from patent US12077503B2, “Substituted cyclic amides and their use as herbicides” (FMC CORPORATION, priority 2015, dated 2024).

What was measured:
Type in all cases: in vivo
[1] = tested on: ragweed (common ragweed, Ambrosia elatior); test: Test A preemergence; conditions: Ambrosia artemisiifolia, pre-emergence, 240 h, preemergence, 0 to 100 scale where 0 is no effect and 100 is complete control, read-out: Ragweed plant response rating
Method in brief: (§1)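 Treatment is preemergence as a directed soil spray after planting, or postemergence at the one- to two-leaf stage, with test chemical in a non-phytotoxic solvent mixture plus surfactant. Plants stay in the greenhouse about 10 d before visual injury scoring on a 0 to 100 scale versus untreated controls.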

[2] = tested on: barnyardgrass (Echinochloa crus-galli); test: Test A preemergence; conditions: Echinochloa crus-galli, pre-emergence, 240 h, preemergence, 0 to 100 scale where 0 is no effect and 100 is complete control, read-out: Barnyardgrass plant response rating
Method in brief: as §1

[3] = tested on: ryegrass, Italian (Italian ryegrass, Lolium multiflorum); test: Test A preemergence; conditions: Lolium multiflorum, pre-emergence, 240 h, preemergence, 0 to 100 scale where 0 is no effect and 100 is complete control, read-out: Ryegrass, Italian plant response rating
Method in brief: as §1

Kochia (Kochia scoparia) [4] = test: Test A preemergence; conditions: Bassia scoparia, pre-emergence, 240 h, preemergence, 0 to 100 scale where 0 is no effect and 100 is complete control, read-out: Kochia plant response rating
Method in brief: as §1

[5] = tested on: pigweed (Amaranthus retroflexus); test: Test A preemergence; conditions: Amaranthus retroflexus, pre-emergence, 240 h, preemergence, 0 to 100 scale where 0 is no effect and 100 is complete control, read-out: Pigweed plant response rating
corn (Zea mays) = test: Test A postemergence; conditions: Zea mays, post-emergence, 240 h, postemergence, read-out: Corn plant response rating
Method in brief: as §1

[6] = tested on: Galium (catchweed bedstraw, Galium aparine); test: Test A postemergence; conditions: Galium, post-emergence, 240 h, postemergence, read-out: Galium plant response rating
Method in brief: as §1

[7] = tested on: blackgrass (Alopecurus myosuroides); test: Test A postemergence; conditions: Alopecurus myosuroides, post-emergence, 240 h, postemergence, read-out: Blackgrass plant response rating
Method in brief: as §1

[8] = tested on: ragweed (common ragweed, Ambrosia elatior); test: Test A postemergence; conditions: Ambrosia artemisiifolia, post-emergence, 240 h, postemergence, read-out: Ragweed plant response rating
Method in brief: as §1

[9] = tested on: barnyardgrass (Echinochloa crus-galli); test: Test A postemergence; conditions: Echinochloa crus-galli, post-emergence, 240 h, postemergence, read-out: Barnyardgrass plant response rating
Method in brief: as §1

[10] = tested on: ryegrass, Italian (Italian ryegrass, Lolium multiflorum); test: Test A postemergence; conditions: Lolium multiflorum, post-emergence, 240 h, postemergence, read-out: Ryegrass, Italian plant response rating
Method in brief: as §1

[11] = tested on: wheat (Triticum aestivum); test: Test A postemergence; conditions: Triticum aestivum, post-emergence, 240 h, postemergence, read-out: Wheat plant response rating
Method in brief: as §1

Kochia (Kochia scoparia) [12] = test: Test A postemergence; conditions: Bassia scoparia, post-emergence, 240 h, postemergence, read-out: Kochia plant response rating
Method in brief: as §1

[13] = tested on: giant foxtail (Setaria faberii); test: Test A postemergence; conditions: Setaria faberi, post-emergence, 240 h, postemergence, read-out: Foxtail, Giant plant response rating
Method in brief: as §1

[14] = tested on: pigweed (Amaranthus retroflexus); test: Test A postemergence; conditions: Amaranthus retroflexus, post-emergence, 240 h, postemergence, read-out: Pigweed plant response rating
Method in brief: as §1

[15] = 125 g ai/ha, visual injury on 0 to 100 scale (0 no effect, 100 complete control), approx. 10 d
[16] = 500 g ai/ha, 0 to 100 scale, 0 is no effect, 100 is complete control

O=C1NC[C@H](c2ccc3c(c2)OCO3)[C@H]1C(=O)Nc1cccc(F)c1C(F)(F)F [Compound 1127]
pest or weed control at 125 g/ha ([1]; 125 g ai/ha, approx. 10 d): 0%
pest or weed control at 500 g/ha ([1]; 500 g ai/ha): 0%
pest or weed control at 125 g/ha ([2]; 125 g ai/ha, approx. 10 d): 0%
pest or weed control at 500 g/ha ([2]; 500 g ai/ha): 30%
pest or weed control at 125 g/ha ([3]; 125 g ai/ha, approx. 10 d): 0%
pest or weed control at 500 g/ha ([3]; 500 g ai/ha): 0%
pest or weed control at 125 g/ha (Kochia (Kochia scoparia) [4]; 125 g ai/ha, approx. 10 d): 0%
pest or weed control at 500 g/ha (Kochia (Kochia scoparia) [4]; 500 g ai/ha): 0%
pest or weed control at 125 g/ha ([5]; 125 g ai/ha, approx. 10 d): 0%
pest or weed control at 500 g/ha ([5]; 500 g ai/ha): 0%
plant injury at 125 g/ha (corn (Zea mays); [15]): 0%
plant injury at 500 g/ha (corn (Zea mays); [16]): 0%
pest or weed control at 125 g/ha [6, 15]: 0%
pest or weed control at 500 g/ha [6, 16]: 40%
pest or weed control at 125 g/ha [7, 15]: 0%
pest or weed control at 500 g/ha [7, 16]: 20%
pest or weed control at 125 g/ha [8, 15]: 0%
pest or weed control at 500 g/ha [8, 16]: 0%
pest or weed control at 125 g/ha [9, 15]: 0%
pest or weed control at 500 g/ha [9, 16]: 40%
pest or weed control at 125 g/ha [10, 15]: 0%
pest or weed control at 500 g/ha [10, 16]: 0%
plant injury at 125 g/ha [11, 15]: 0%
plant injury at 500 g/ha [11, 16]: 0%
pest or weed control at 125 g/ha (Kochia (Kochia scoparia) [12]; [15]): 0%
pest or weed control at 500 g/ha (Kochia (Kochia scoparia) [12]; [16]): 0%
pest or weed control at 125 g/ha [13, 15]: 0%
pest or weed control at 500 g/ha [13, 16]: 50%
pest or weed control at 125 g/ha [14, 15]: 0%
pest or weed control at 500 g/ha [14, 16]: 0%
